In US20040176313A1, “Inhibitors of Src kinase for use in alzheimer's disease” (Aventis Pharma S.A., priority 2002, published 2004):

Columns and labels:
[1] = system: Aβ secretion, HEK293 cells transfected with APP695 and SrcYF; assay: Aβ accumulation in culture medium of HEK293 cells co-transfected with APP695 and active Src (SrcYF), sandwich ELISA (FIG. 5); assay type: cell-based, Human; conditions: exposure for 48 hours to 1, 5 and 20 μM PP2 or PP3, sandwich ELISA on culture medium
Experimental: Human embryonic kidney cells (HEK293) were cultured in Dulbecco's modified minimal medium supplemented with 10% fetal calf serum at 37° C. in a 5% CO2 atmosphere. For transfection, cells were grown for 16 hours in antibiotic-free medium, and transfected with Lipofectamine 2000 (Invitrogen) according to manufacturer's instructions. The total amount of DNA was maintained constant by addition of empty vector DNA. […] The extracts were clarified by centrifugation at 16,000×g at 4° C., and the protein concentration determined by the Bio-Rad protein assay according to manufacturer's instructions. […] Radioactive samples were resolved on 10% SDS-PAGE and quantitated with a Storm 840 phosphorimager (Amersham Pharmacia Biotech). […]
HEK293 cells were transfected with APP695 expression vectors. […] HEK293 cells were co-transfected with APP and either empty vector, or active Abl (Abl-PP), or active Src (SrcYF) kinases, and the secretion of APPsec and β were evaluated. […] Both medium and protein extracts have been used in immunoprecipitation experiments for quantitative dosage of radiolabeled APPsec and holo-APP, respectively. […]

[2] = system: Aβ secretion, CHO cells stably overexpressing APP751; assay: Aβ secretion from CHO cells stably overexpressing APP751 treated with PP2 or PP3 (FIG. 6); assay type: cell-based; conditions: PP2 5 and 20 μM, PP3 20 μM (highest concentration), time points 1, 3 and 12 hours
Experimental: Therefore, a line of CHO cells stably overexpressing APP751 form was used, which secretes discrete levels of Aβ. If secretion involves endogenous Src activity, PP2 should be able to inhibit production of Aβ also in this cellular system.
Human embryonic kidney cells (HEK293) were cultured in Dulbecco's modified minimal medium supplemented with 10% fetal calf serum at 37° C. in a 5% CO2 atmosphere. For transfection, cells were grown for 16 hours in antibiotic-free medium, and transfected with Lipofectamine 2000 (Invitrogen) according to manufacturer's instructions. The total amount of DNA was maintained constant by addition of empty vector DNA. 48 hours after transfection, culture medium were recovered, while cells were harvested in ice-cold phosphate buffer saline (PBS) and gently lysed in lysis buffer (50 mM Tris/HCl, pH 7.5, 150 mM NaCl, 0.5% Triton X-100, 10% glycerol, 50 mM NaF, 1mM Na vanadate), in the presence of a protease inhibitor cocktail (Complete, EDTA-free, Roche). The extracts were clarified by centrifugation at 16,000×g at 4° C., and the protein concentration determined by the Bio-Rad protein assay according to manufacturer's instructions. […] Radioactive samples were resolved on 10% SDS-PAGE and quantitated with a Storm 840 phosphorimager (Amersham Pharmacia Biotech). […]

| SMILES | secreted Aβ [1] | amount of Aβ [2] |
| --- | --- | --- |
| Nc1ncnc2c1cnn2-c1ccccc1 [PP3] | do not affect Aβ rise by SrcYF transfection | has no effect |
| CC(C)(C)n1nc(-c2ccc(Cl)cc2)c2c(N)ncnc21 [PP2, 4-amino-5-(4-chlorophenyl)-7-(t-butyl)pyrazolo[3,4d]pyrimidine] | dose-dependent decrease of secreted AP | reduces in a dose-dependent manner the amount of Aβ |
